Laboratory results published in US20250009924A1, “Indane Derivatives for Malodor Counteraction” (Firmenich SA, priority 2015, published 2025).

Assays:
[1] = system: indole-responsive olfactory sensory neurons; test: Ca2+ imaging of olfactory sensory neurons, antagonist screening against indole; type: cell-based; conditions: 25 μM indole + 125 μM MOC compound as binary mixture; percentage of malodor-responsive OSN population inhibited by more than 10% (modulation values less than −10%)
Experimental: (§1) Identification of malodor-sensitive olfactory neurons was performed as previously described in WO 2014/210582. Identification of antagonist compounds that inhibit the response of malodor-sensitive olfactory neurons to the target malodor was performed according to Kajiya et al (2001) (K. Kajiya, et al in The Journal of Neuroscience, (2001) 21, 6018-6025).
(§2) Olfactory sensory neurons were stimulated with 25 μM indole (MO) and 125 μM MOC either alone or as a binary mixture. By comparing the peak value of the calcium-induced fluorescence ratio change induced by exposure to the target MO compound to that of the mixture of MO+MOC candidate, a “modulation value” was calculated. The larger the difference between the two peak values, the greater the magnitude of the modulation value. If the peak value for the MO was larger than that of the MO+MOC, the modulation value was negative, whilst the inverse produced positive modulation values. A modulation value was calculated for each cell responding to the positive-control stimulus forskolin (Pos) and the MO compound, but not to the negative-control buffer stimulus (Neg). For each candidate MOC compound, a baseline ‘modulation value’ was obtained by repeated stimulations of olfactory neurons with indole alone (left box plot in B, D, F). The percentage of target malodor-responsive cells with negative modulation values less than −10% was plotted on a bar chart. Population data are represented as box plots, where the interquartile range (25-75th percentiles) of olfactory sensory neuron modulation is contained within the box, with the median indicated by the black bar and the 95th percentile by the arms.
Olfactory sensory neurons were stimulated with 25 μM indole malodor and 125 μM candidate MOC compound as a binary mixture.

[2] = Air dilution olfactometry sensory panel, indole vs indole + compound; type: in vivo, human; parameters: key to Freshness score: linear labeled scale, no freshness to very fresh; key to Animal/Fecal/Tar score: linear labeled scale, no to very animal/fecal/tar; key to Pleasantness score: linear labeled scale, very unpleasant to very pleasant; conditions: for Freshness score / Pleasantness score / Animal/Fecal/Tar score: indole + compound at individualized iso-intense concentrations; for Freshness score: indole alone 2.2 ± 0.2; for Pleasantness score: indole alone 2.6 ± 0.2; for Animal/Fecal/Tar score: linear labeled scale, indole alone 6.9 ± 0.2; for Animal/Fecal/Tar Reduction: indole + compound vs indole alone, iso-intense levels
Experimental: Air dilution olfactometry was used to measure all psychophysical data of individual and mixed odorants. Odorized flows of air with precisely set concentrations were prepared by the evaporation of a known flux of odorant in a determined flow of air. The flux of odorant was delivered through a microsyringe operated by a calibrated micromotor into a heated vessel under a steady nitrogen flow. The odorant was vaporized and swept away by the nitrogen, and this primary flow was later diluted with humidified air to the desired concentration. Odorants can be presented one by one in olfactometers (see as a reference “Multidimensional visualization of physical and perceptual data leading to a creative approach in fragrance development”, C. Vuilleumier, M. van de Waal, H. Fontannaz, I. Cayeux and P. A. Rebetez, in Perfumer & Flavourist, 33, 55 (2008)); alternatively, a machine blending up to 12 flows of odorants in variable and adjustable proportions could be used. A sniffing outlet delivered a continuous and adjustable odorized air flow. The upper working limit was determined by the vapor pressure of the odorants at room temperature. The odorized flow was delivered at a temperature of 26° C., close to the temperature within the nose. The combination of air (540 l/h) and nitrogen (60 l/h) represented a total gas flow of 600 l/h with a relative humidity of 50%. The speed of injection of the solutions in the evaporation chamber was modulated and controlled for each subject and adjusted to obtain a medium perceived intensity (see above reference, for instance FIG. 4).
Standardized psychophysical procedures were used to determine olfactory detection thresholds (triangle testing) or perceived intensity, after a training period (see above reference).
A method was designed as an iterative process to obtain dose-response relationship and odor detection threshold of perfumery ingredients or malodorants with a minimum number of experiments (see FIG. 5 in the above reference).
FIG. 2 reports the radar plot of indole alone and indole+compound 1 obtained with a panel of 13 persons using a sensory protocol to evaluate the potential antagonists versus indole. The protocol involves two steps: • Step 1: the participants evaluated the tested ingredients and indole independently to adjust their individualized concentrations by changing the rate of injection (see above description and reference) to elicit a medium intensity perception for each chemical. These concentrations, corresponding to iso-intense levels, were applied in the second step of the process. The range of concentrations to be submitted to subjects was determined from dose-response relationships for the selected ingredients and indole. In the present experiment the molar ratio Compound 1/indole varied according to the individuals from about 1/1 to 10/1 (typical preferred individual range is between 2.5/1 and 4.5/1). • Step 2: Blind sensory evaluations were set; no information was disclosed to the participants on the submitted odorous stimuli. The subjects had to evaluate first indole alone at its individualized concentration and rate the following three descriptors on a linear labeled scale: • Pleasantness (From «Very unpleasant» to «Very pleasant») • Freshness (From «No Freshness» to «Very fresh») • Malodor character: Animal/Fecal/Tar (From «No . . . » to «Very . . . »)
The next submission, 30 seconds after the previous one to avoid odor adaptation, involved the simultaneous injection of indole and of the tested ingredient at individualized concentrations. The same descriptors were rated.

[3] = Binary mixtures of lily-of-the-valley odorants with malodor, perception of fecal and animal note; conditions: the fecal and animal note remains clearly perceptible
[4] = system: Skatole OSNs (olfactory sensory neurons); test: Ca2+ imaging of olfactory sensory neurons, antagonist screening against skatole; type: cell-based; conditions: 50 μM skatole + 250 μM MOC compound as binary mixture; percentage of malodor-responsive OSN population inhibited by more than 10%
Experimental: as §1, §2
Olfactory sensory neurons were stimulated with 50 μM skatole malodor and 250 μM candidate MOC compound as a binary mixture.

[5] = system: DMTS OSNs (olfactory sensory neurons); test: Ca2+ imaging of olfactory sensory neurons, antagonist screening against dimethyl trisulfide (DMTS); type: cell-based; conditions: 50 μM DMTS + 250 μM MOC compound as binary mixture; percentage of malodor-responsive OSN population inhibited by more than 10%
Experimental: as §1, §2
Olfactory sensory neurons were stimulated with 50 μM DMTS malodor and 250 μM candidate MOC compound as a binary mixture.

Row | Compound | Proportion of Indole OSNs [1] [%] | Freshness score [2] | Pleasantness score [2] | Animal/Fecal/Tar score [2] | Animal/Fecal/Tar Reduction [2] [percentage] | other results
1 | Cc1cc2c(cc1C)CC(C)(CO)C2 [Compound 14, 2,5,6-trimethyl-2-indanmethanol] | 20 |  |  |  |  | 
2 | CC(=O)OCC1(C)Cc2ccc(C)cc2C1 (stereo not drawn) [Compound 10, (2,5-dimethyl-2-indanyl)methyl acetate] | 42 |  |  |  |  | 
3 | CCC1(CO)Cc2ccc(C)cc2C1 (stereo not drawn) [Compound 11, 2-ethyl-5-methyl-2-indanmethanol] | 35 |  |  |  |  | 
4 | COCC1(C)Cc2ccc(C)cc2C1 (stereo not drawn) [Compound 2, (2,5-dimethyl-2,3-dihydro-1H-inden-2-yl)methyl methyl ether] | 43 | 4.7 ± 1.3 | 3.9 ± 0.8 | 3.5 ± 1.5 | 50 | 
5 | CCc1ccc2c(c1)CC(C)(CO)C2 (stereo not drawn) [Compound 8, 5-ethyl-2-methyl-2-indanmethanol] | 30 |  |  |  |  | 
6 | Cc1ccc2c(c1)CCC(C)(CO)C2 (stereo not drawn) [Compound 7, (2,6-dimethyl-1,2,3,4-tetrahydro-2-naphthalenyl)methanol] | 54 |  |  |  |  | 
7 | CC1(CO)Cc2ccc(C(C)(C)C)cc2C1 (stereo not drawn) [Compound 13, 5-tert-butyl-2-methyl-2-indanmethanol] | 54 |  |  |  |  | 
8 | Cc1cccc2c1CC(C)(CO)C2 (stereo not drawn) [Compound 15, 2,4-dimethyl-2-indanmethanol] | 17 |  |  |  |  | 
9 | Cc1ccc2c(c1C)CC(C)(CO)C2 (stereo not drawn) [Compound 9, (2,4,5-trimethyl-2,3-dihydro-1H-inden-2-yl)methanol] | 78 |  |  |  |  | 
10 | CC1(C)CCc2ccc(CCC=O)cc21 [3-(3,3-dimethyl-2,3-dihydro-1h-inden-5-yl)propanal] |  |  |  |  |  | malodor reduction (reduction of the negative odor character) [3]: fail to produce such malodor reduction
11 | CC(=O)C1(C)Cc2ccc(C)cc2C1 (stereo not drawn) [Compound 6, 1-(2,5-dimethyl-2,3-dihydro-1H-inden-2-yl)ethanone] | 69 | 5.2 ± 1.6 | 5.8 ± 1.4 | 2.2 ± 1.2 | 68 | Proportion of Skatole OSNs [4]: 92%; Proportion of DTMS OSNs [5]: 94%
12 | CC(C)c1ccc2c(c1)CC(C)(CO)C2 (stereo not drawn) [Compound 12, 5-isopropyl-2-methyl-2-indanmethanol] | 57 |  |  |  |  | 
13 | Cc1ccc2c(c1)CC(C)(CO)C2 (stereo not drawn) [Compound 1, 2,5-dimethyl-2-indanemethanol] | 56 | 6.7 ± 0.9 | 7.8 ± 0.7 | 1.3 ± 0.5 | 81 | Proportion of Skatole OSNs [4]: 82%; Proportion of DTMS OSNs [5]: 69%
14 | CC(=O)OCC1(C)Cc2ccccc2C1 [Compound 5, (2-methyl-2,3-dihydro-1H-inden-2-yl)methyl acetate] | 77 | 5.2 ± 1.2 | 5.7 ± 1.1 | 2.7 ± 1.0 | 61 | Proportion of Skatole OSNs [4]: 87%; Proportion of DTMS OSNs [5]: 82%
15 | Cc1ccc2c(c1)CC(CO)C2 (stereo not drawn) [Compound 4, (5-methyl-2,3-dihydro-1H-inden-2-yl)methanol] | 41 | 6.6 ± 1.5 | 7.2 ± 1.2 | 2.1 ± 1.1 | 70 | 
16 | CC(C=O)Cc1ccc(C(C)(C)C)cc1 (stereo not drawn) [3-(4-tert-butylphenyl)-2-methylpropanal] |  |  |  |  |  | malodor reduction (reduction of the negative odor character) [3]: fail to produce such malodor reduction
17 | CC1(CO)Cc2ccccc2C1 [Compound 3, (2-methyl-2,3-dihydro-1H-inden-2-yl)methanol] | 41 | 5.2 ± 1.5 | 6.0 ± 1.4 | 3.1 ± 1.3 | 55 | 
18 | Cc1cc(C)c2c(c1)CC(C)(CO)C2 (stereo not drawn) [Compound 16, (2,4,6-trimethyl-2,3-dihydro-1H-inden-2-yl)methanol] | 14 | 6.2 ± 1.6 | 6.4 ± 1.3 | 2.6 ± 1.4 | 62 | 
19 | COc1ccc2c(c1)CC(C)(CO)C2 (stereo not drawn) [Compound 17, (5-methoxy-2-methyl-2,3-dihydro-1H-inden-2-yl)methanol] | 23 |  |  |  |  | 
20 | CC(C)(C)c1ccc(CCC=O)cc1 [3-(4-tert-butylphenyl)propanal] |  |  |  |  |  | malodor reduction (reduction of the negative odor character) [3]: fail to produce such malodor reduction
